According to patent US20030008331A1, “Directed evolution biosensors” (priority 1998, published 2003):

Tested on: cells which do not express the β2-adrenergic receptor (wild type)
Experiment: melanophore pigment dispersion assay, wild type cells
Format: cell-based, frog
Settings: wild type melanophores, two successive tests

SMILES: CC(C)(C)NCC(O)c1ccc(O)c(CO)c1 (stereo not shown) [salbutamol]
- response of cells to challenge: did not respond
